# Measurements taken from US20070020193A1, “Dronabinol compositions and methods for using same” (priority 2005, published 2007).
# Assay: Example 2 multiple rising dose inhaled delta-9-THC study: plasma pharmacokinetics
# Method: A randomized, double-blind, placebo-controlled, multiple rising dose safety, tolerability, pharmacokinetic and pharmacodynamic study to assess two dose levels of inhaled delta-9-THC was conducted. Dose levels were studied in ascending order. Two consecutive groups (n=9/group) of healthy subjects were studied (Groups I and II). […] There was a lapse of at least 10 days between the groups for interim safety and pharmacokinetic analysis. Two dose levels were studied in ascending order. […] Subjects in each treatment Group (I or II) received single and multiple doses of inhaled delta-9-THC according to the following schedule:
# For both dose levels, the first and the last dose of study drug was given under fasted conditions. Subjects were confined to the study site from the evening of Day −2 (Day 1 is the day of administration of the first dose of study drug) until the 120-hour blood sample following the final dose of study drug, resulting in an 18-day confinement period for subjects in Group I and a 25-day confinement period for Group II. Between the completion of Group I and the start of Group II, an interim safety and pharmacokinetic analysis was performed. Based on the results of the interim analyses, the dose level for investigation in Group II was determined.
# Two MDI dosage strengths were used corresponding to the same formulations used in Example 1: one delivering 0.3 mg delta-9-THC (or placebo) per actuation and one delivering 1.2 mg delta-9-THC (or placebo) per actuation. The MDI consisted of a pressurized (via propellants) container and a metered-dose valve. The propellants provided the necessary force to expel the drug, and also acted as a solvent and diluent. The canister unit was provided within a mouthpiece (oral adapter), to expel an exact amount of drug, in the proper particle size distribution, upon each actuation. Two basic formulations containing 0.3 and 1.2 mg of delta-9-THC per 50 μL were developed with propellant 1,1,1,2 tetrafluoroethane 134a (HFA 134a), and ethanol as solvent. The formulations were made in accordance with the composition used in Example 1.
# Whole blood samples were collected according to the assessment flowchart in EDTA tubes through venepuncture or indwelling catheter. Samples were immediately placed on ice and subsequently centrifuged within 30 minutes at 1,500 g for 10 minutes. Plasma was transferred into a 5 ml screw cap polypropylene tube, stoppered and stored at below minus 20° C. until transfer to the analytical laboratory for analysis. […] The measurement ranges were 0.05-30 ng/ml for delta-9-THC, 0.04-30 ng/ml for 11-OH-THC, and 0.25-10 ng/ml for THC-COOH.
# For Example 2: The statistical analysis encompassed an exploratory analysis of the single and multiple dose pharmacokinetics and dose proportionality of two dose levels of inhaled delta-9-THC in healthy subjects. Descriptive statistics included number of subjects, mean, standard deviation, coefficient of variation (%) and geometric mean for all pharmacokinetic parameters.
# The exploratory analysis was performed on the logarithms of the dose-normalized pharmacokinetic parameters AUC(0-inf), AUC(0-t), AUC(0-τ) and Cmax. Dose proportionality was tested both at single dose and at multiple dose (steady state) by comparing the dose groups for all pharmacokinetic parameters by an analysis of variance with dose as fixed effect.
# Dose proportionality was tested by the contrast between the dose groups. For this contrast on the logarithmic scale, p-values were given. After anti-logarithmic transformation, the resultant ratios of geometric means and 90% confidence intervals were given.
# Accumulation was tested by comparing the steady state values for AUC(0-τ) with the single dose values for AUC(0-τ) by a mixed model analysis of variance with dose and day (with levels single dose and steady state) as fixed effects and subject within dose as random effect.
compound,measurement,setting,value
"CCCCCc1cc(O)c2c(c1)OC(C)(C)C1CCC(C(=O)O)=CC21 (stereo not drawn) [THC-COOH, delta-9-tetrahydrocannbinol-carboxylic acid]",achievement of steady state,1.2 mg delta-9-THC three times daily,lack of steady state
same,"Cmax, Geometric Mean (Range)","1.2 mg m.d. (three times daily), Day 12, Group I",7.97 (6.03-10.9) ng/mL
same,"AUC(0-8), Arithmetic Mean (SD)","1.2 mg m.d., Day 12, Group I",51.9 (14.7) ng · h/mL
same,"AUC(0-8), Geometric Mean (Range)","1.2 mg m.d., Day 12, Group I",50.1 (34.1-69.8) ng · h/mL
same,"Cmax, Arithmetic Mean (SD)","1.2 mg m.d., Day 12, Group I",8.15 (1.87) ng/mL
same,"tmax, Arithmetic Mean (SD)","1.2 mg m.d., Day 12, Group I",0.86 (0.88) h
same,"tmax, median (range)","1.2 mg m.d., Day 12, Group I",0.33 (0.25-2.00) h
same,"t½, Arithmetic Mean (SD)","1.2 mg m.d., Day 12, Group I",32.1 (9.07) h
same,"t½, Geometric Mean (Range)","1.2 mg m.d., Day 12, Group I",31.0 (23.2-43.8) h
same,"AUC(0-8), Arithmetic Mean (SD)","1.2 mg s.d., Day 1",18.5 (3.85) ng · h/mL
same,"AUC(0-8), Geometric Mean (Range)","1.2 mg s.d., Day 1",18.2 (13.0-24.2) ng · h/mL
same,"AUC(0-inf), Arithmetic Mean (SD)","1.2 mg s.d., Day 1",83.6 (18.5) ng · h/mL
same,"AUC(0-inf), Geometric Mean (Range)","1.2 mg s.d., Day 1",82.0 (60.5-110) ng · h/mL
same,"tmax, Arithmetic Mean (SD)","1.2 mg s.d., Day 1",1.54 (0.75) h
same,"tmax, median (range)","1.2 mg s.d., Day 1",2.00 (0.25-2.00) h
same,"t½, Arithmetic Mean (SD)","1.2 mg s.d., Day 1",33.9 (12.8) h
same,"t½, Geometric Mean (Range)","1.2 mg s.d., Day 1",32.0 (23.9-50.6) h
same,"Cmax, Arithmetic Mean (SD)","1.2 mg s.d., Day 1, plasma",3.81 (0.56) ng/mL
same,"Cmax, Geometric Mean (Range)","1.2 mg s.d., Day 1, plasma",3.77 (2.81-4.40) ng/mL
same,"Cmax, Geometric Mean (Range)","3.6 mg m.d. (three times daily), Day 19, Group II",25.5 (13.2-45.0) ng/mL
same,"AUC(0-8), Arithmetic Mean (SD)","3.6 mg m.d., Day 19, Group II",182 (97.5) ng · h/mL
same,"AUC(0-8), Geometric Mean (Range)","3.6 mg m.d., Day 19, Group II",159 (75.5-317) ng · h/mL
same,"Cmax, Arithmetic Mean (SD)","3.6 mg m.d., Day 19, Group II",28.1 (12.7) ng/mL
same,"tmax, Arithmetic Mean (SD)","3.6 mg m.d., Day 19, Group II",1.03 (0.79) h
same,"tmax, median (range)","3.6 mg m.d., Day 19, Group II",0.75 (0.33-2.00) h
same,"t½, Arithmetic Mean (SD)","3.6 mg m.d., Day 19, Group II",39.6 (15.3) h
same,"t½, Geometric Mean (Range)","3.6 mg m.d., Day 19, Group II",37.4 (24.0-62.3) h
same,"AUC(0-8), Arithmetic Mean (SD)","3.6 mg s.d., Day 1",47.1 (17.5) ng · h/mL
same,"AUC(0-8), Geometric Mean (Range)","3.6 mg s.d., Day 1",44.5 (30.2-74.4) ng · h/mL
same,"AUC(0-inf), Arithmetic Mean (SD)","3.6 mg s.d., Day 1",172 (85.6) ng · h/mL
same,"AUC(0-inf), Geometric Mean (Range)","3.6 mg s.d., Day 1",152 (64.8-283) ng · h/mL
same,"tmax, Arithmetic Mean (SD)","3.6 mg s.d., Day 1",2.33 (0.52) h
same,"tmax, median (range)","3.6 mg s.d., Day 1",2.00 (2.00-3.00) h
same,"t½, Arithmetic Mean (SD)","3.6 mg s.d., Day 1",23.8 (11.3) h
same,"t½, Geometric Mean (Range)","3.6 mg s.d., Day 1",21.7 (11.3-39.2) h
same,"Cmax, Arithmetic Mean (SD)","3.6 mg s.d., Day 1, plasma",8.75 (3.16) ng/mL
same,"Cmax, Geometric Mean (Range)","3.6 mg s.d., Day 1, plasma",8.34 (6.01-14.4) ng/mL
same,achievement of steady state,3.6-mg dose level three times daily,achieved after seven or eight days of dosing
same,accumulation during multiple dosing,8-hours dosing interval,accumulation occurred during multiple dosing
same,"Ratio AUC(0-8) m.d./AUC(0-8) s.d. (Accumulation factor), Mean","Group I, 1.2 mg",2.90
same,"Ratio AUC(0-8) m.d./AUC(0-inf) s.d. (Linearity), Mean","Group I, 1.2 mg",0.65
same,"Ratio AUC(0-8) m.d./AUC(0-8) s.d. (Accumulation factor), Mean","Group II, 3.6 mg",3.92
same,"Ratio AUC(0-8) m.d./AUC(0-inf) s.d. (Linearity), Mean","Group II, 3.6 mg",1.11
same,dose proportionality: geometric mean ratio (3.6 mg:1.2 mg) of dose-normalized AUC(0-8) (90% confidence interval),Multiple dose,1.05 (0.65-1.71)
same,dose proportionality: geometric mean ratio (3.6 mg:1.2 mg) of dose-normalized Cmax (90% confidence interval),Multiple dose,1.07 (0.71-1.60)
same,dose proportionality: geometric mean ratio (3.6 mg:1.2 mg) of dose-normalized AUC(0-8) (90% confidence interval),Single dose,0.82 (0.60-1.11)
same,dose proportionality: geometric mean ratio (3.6 mg:1.2 mg) of dose-normalized AUC(0-inf) (90% confidence interval),Single dose,0.62 (0.39-0.98)
same,dose proportionality: geometric mean ratio (3.6 mg:1.2 mg) of dose-normalized AUC(0-t) (90% confidence interval),Single dose,0.61 (0.34-1.09)
same,dose proportionality: geometric mean ratio (3.6 mg:1.2 mg) of dose-normalized Cmax (90% confidence interval),Single dose,0.74 (0.56-0.96)
same,"exposure, fold higher compared to the parent",after both single and multiple dose administration,approximately 10 fold
same,"Cmax, fold lower compared to the parent compound",after single dosing,5 fold
same,dose proportionality of pharmacokinetic parameters,after single or multiple dose administration,not found to deviate significantly
same,"plasma concentration-time curve, elimination profile",both dose levels,almost no distribution phase and a multi-phasic elimination phase
same,time of peak plasma concentration,"both dose levels, post-dose",between 15 minutes and 3 hours post-dose
same,ratios of AUC(0-8) after multiple dosing versus AUC(0-inf) after single dose (linearity),in vivo,did not deviate clearly or significantly from unity
same,Cmax and AUC values versus dose,"single and multiple dose administration, 1.2 and 3.6 mg",Dose-related increases
same,Terminal elimination half-lives (summary estimate),"summary, best estimated after multiple dosing",~30 h
